From ChEMBL document CHEMBL3808272, “Discovery of (S)-4-isobutyloxazolidin-2-one as a novel leucyl-tRNA synthetase (LRS)-targeted mTORC1 inhibitor” (Bioorg Med Chem Lett, 2016) come the findings set out here.

For series [1], the system named is HEK293. The series is described as follows: Effect on cellular Akt level in HEK293 cells pre-treated at 100 nM followed by leucine stimulation for 10 mins by immunoblotting analysis. In kind it is ADME, cell-based. The note with it: human, hek293, 0.1 µM. For orientation: A western blot detects proteins with antibodies after separation by electrophoresis.
The test system of series [2] is HEK293. The series is described as follows: Inhibition of mTORC2 (unknown origin) expressed in HEK293 cells assessed as inhibition of leucine-induced Akt S473 phosphorylation pre-treated at 100 nM followed by leucine stimulation for 10 mins by immunoblotting analysis. As to conditions: Homo sapiens. The format is cell-based.
For series [3], the system named is SW-620. The series can be described thus: Cytotoxicity against rapamycin resistant human SW620 cells at 1 uM by CellTox green fluorescent dye based assay. In kind it is functional, cell-based.
The target of series [4] is Leucine--tRNA ligase, cytoplasmic (Homo sapiens) (UniProt Q9P2J5). The series is described as follows: Inhibition of leucyl-tRNA synthetase (unknown origin) expressed in HEK293 cells assessed as inhibition of leucine-induced mTORC1-mediated S6 kinase phosphorylation pre-treated at 100 nM followed by leucine stimulation for 10 mins by immunoblotting analysis. The format is cell-based.
Chain of Leucine--tRNA ligase, cytoplasmic (Homo sapiens) (Q9P2J5 whole entry, looked up): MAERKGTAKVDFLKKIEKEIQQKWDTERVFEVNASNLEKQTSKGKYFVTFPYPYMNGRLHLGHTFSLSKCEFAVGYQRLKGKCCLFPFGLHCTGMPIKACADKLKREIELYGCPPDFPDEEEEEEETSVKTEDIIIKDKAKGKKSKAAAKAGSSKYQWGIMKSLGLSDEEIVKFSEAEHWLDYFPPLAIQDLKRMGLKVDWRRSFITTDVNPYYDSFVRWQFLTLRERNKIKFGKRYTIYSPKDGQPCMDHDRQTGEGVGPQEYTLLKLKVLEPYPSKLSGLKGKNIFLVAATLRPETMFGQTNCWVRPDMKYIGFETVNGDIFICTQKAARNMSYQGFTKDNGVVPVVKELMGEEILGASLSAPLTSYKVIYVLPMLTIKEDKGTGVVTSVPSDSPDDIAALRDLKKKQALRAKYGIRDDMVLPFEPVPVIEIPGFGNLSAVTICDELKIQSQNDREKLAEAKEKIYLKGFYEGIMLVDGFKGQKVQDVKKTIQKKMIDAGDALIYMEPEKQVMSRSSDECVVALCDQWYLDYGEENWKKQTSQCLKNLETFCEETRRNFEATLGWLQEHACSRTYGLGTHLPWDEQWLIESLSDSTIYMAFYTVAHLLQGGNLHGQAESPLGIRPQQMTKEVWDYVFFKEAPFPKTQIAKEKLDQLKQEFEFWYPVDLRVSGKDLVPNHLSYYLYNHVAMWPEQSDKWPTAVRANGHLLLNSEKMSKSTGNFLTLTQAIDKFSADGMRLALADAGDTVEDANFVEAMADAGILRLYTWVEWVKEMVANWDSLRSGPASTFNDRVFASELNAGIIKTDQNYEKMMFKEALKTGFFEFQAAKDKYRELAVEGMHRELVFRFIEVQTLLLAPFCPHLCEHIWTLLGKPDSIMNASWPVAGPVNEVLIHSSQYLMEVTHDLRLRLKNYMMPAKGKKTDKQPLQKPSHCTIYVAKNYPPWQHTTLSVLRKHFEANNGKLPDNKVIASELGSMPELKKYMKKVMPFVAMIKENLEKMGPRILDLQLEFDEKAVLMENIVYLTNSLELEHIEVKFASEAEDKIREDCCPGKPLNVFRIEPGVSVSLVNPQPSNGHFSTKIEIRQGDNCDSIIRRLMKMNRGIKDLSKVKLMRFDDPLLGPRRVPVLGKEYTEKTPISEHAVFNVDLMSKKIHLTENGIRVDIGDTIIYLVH

Series [5] shares this target. The series is described as follows: Inhibition of leucyl-tRNA synthetase (unknown origin) expressed in HEK293 cells assessed as inhibition of leucine-induced mTORC1-mediated S6 kinase phosphorylation pre-treated at 1 mM followed by leucine stimulation for 10 mins by immunoblotting analysis. The format is cell-based.
Series [6] has the same target. The series can be described thus: Inhibition of leucyl-tRNA synthetase (unknown origin) expressed in HEK293 cells assessed as inhibition of leucine-induced mTORC1-mediated S6 kinase phosphorylation pre-treated with compound followed by leucine stimulation for 10 mins by immunoblotting analysis. In kind it is cell-based.
In series [7] the test system is HEK293. The series is described as follows: Effect on cellular Akt level in HEK293 cells pre-treated at 100 nM to 800 uM followed by leucine stimulation for 10 mins by immunoblotting analysis. In kind it is cell-based. The note with it: human.
Series [8] concerns HEK293. The series is described as follows: Inhibition of mTORC2 (unknown origin) expressed in HEK293 cells assessed as inhibition of leucine-induced Akt S473 phosphorylation pre-treated at 100 nM to 800 uM followed by leucine stimulation for 10 mins by immunoblotting analysis. As to conditions: Homo sapiens. In kind it is cell-based.
Series [9] has as its target Leucine--tRNA ligase, cytoplasmic (Homo sapiens) (UniProt Q9P2J5). The series is described as follows: Inhibition of leucyl-tRNA synthetase (unknown origin) catalytic activity assessed as aminoleucylation.
For series [10], the system named is SW-620. The series can be described thus: Cytotoxicity against rapamycin resistant human SW620 cells at 400 uM to 4 mM by CellTox green fluorescent dye based assay. In kind it is functional, cell-based.
Series [11] concerns the target Leucine--tRNA ligase, cytoplasmic (Homo sapiens) (UniProt Q9P2J5). The series can be described thus: Inhibition of leucyl-tRNA synthetase (unknown origin) expressed in HEK293 cells assessed as inhibition of leucine-induced mTORC1-mediated S6 kinase phosphorylation pre-treated at 800 uM followed by leucine stimulation for 10 mins by immunoblotting analysis. In kind it is cell-based.

Series [12] has as its system HEK293. The series is described as follows: Inhibition of mTORC2 (unknown origin) expressed in HEK293 cells assessed as inhibition of leucine-induced Akt S473 phosphorylation pre-treated at 800 uM followed by leucine stimulation for 10 mins by immunoblotting analysis. The format is cell-based. The note with it: Homo sapiens.
The subject of series [13] is HEK293. The series can be described thus: Effect on cellular Akt level in HEK293 cells pre-treated at 800 uM followed by leucine stimulation for 10 mins by immunoblotting analysis. In kind it is ADME, cell-based. As to conditions: human, hek293, 800 µM.
Series [14] concerns SW-620. The series is described as follows: Cytotoxicity against rapamycin resistant human SW620 cells by CellTox green fluorescent dye based assay. In kind it is functional, cell-based.

Each structure is given as a SMILES string. The source made the active and inactive calls. The calls are words filed in the database; no cut-off is given here.

Take `CO[C@H]1C[C@@H]2CC[C@@H](C)[C@@](O)(O2)C(=O)C(=O)N2CCCC[C@H]2C(=O)O[C@H]([C@H](C)C[C@@H]2CC[C@@H](O)[C@H](OC)C2)CC(=O)[C@H](C)/C=C(\C)[C@@H](O)[C@@H](OC)C(=O)[C@H](C)C[C@H](C)/C=C/C=C/C=C/1C` [SIROLIMUS]: in series [1], the Activity entry is reported as “Non-toxic”. Besides, in series [2], the inhibition entry is “inactive”. For the same compound, in series [3], the outcome was inactive. Moreover, in series [4], the inhibition result was “Active”.

As for `COC[C@@H](N)CC(C)C`, the inhibition entry in [5] is “inactive”.

Consider `CC(C)C[C@H]1COC(=O)N1`, for which the inhibition result in series [6] was “Dose-dependent effect”. Also, the inhibition entry in [5] was “Active”. For the same compound, the Activity entry in series [7] was “Non-toxic”. The inhibition result in series [8] was “inactive”.

Turning to `CC(C)C[C@H](N)[C@@H](C)O`, in [5], the inhibition result is “inactive”.

As for `CC(C)C[C@H](N)CN`, the inhibition result in [5] was “inactive”.

Regarding `CC(C)C[C@H](N)CNO`, the inhibition result in [6] was “Dose-dependent effect”. In series [5], the inhibition result was “Active”. Further, the Activity entry in [7] is given as “Non-toxic”. The inhibition entry in series [8] was “inactive”.

As to `CC(C)C[C@H](N)[C@H](C)O`, the inhibition result in series [5] is “inactive”.

Regarding `CC(C)C[C@H](N)CCN`, the inhibition entry in [5] was “inactive”.

Consider `CC(C)C[C@H](N)CCO`, for which the inhibition result in [5] was “inactive”.

Take `CC(C)C[C@H](N)COS(C)(=O)=O`: the inhibition entry in series [5] was “inactive”.

Turning to `CC(C)Cc1ncc[nH]1`, the inhibition entry in series [6] is “Dose-dependent effect”. In addition, the inhibition result in series [5] is “Active”. Further, the inhibition result in [9] and in series [8] was “inactive” in each case. In [7], the Activity result was “Non-toxic”.

In the case of `CC(C)C[C@H](N)/C=N/O`, the inhibition entry in series [5] is “inactive”.

With `CC(C)C[C@H](N)CNS(C)(=O)=O`, the inhibition result in series [5] is “inactive”.

As for `CC(=O)NC[C@@H](N)CC(C)C`, the inhibition entry in series [5] was “inactive”.

As to `CC(C)C[C@H](N)CO`, the outcome in [10] was Active. Besides, the inhibition entry in series [5] and in series [11] was “Active” each time. The inhibition result in series [12] is “inactive”. In [13], the Activity entry is listed as “Non-toxic”.

Take `CC(C)C[C@H]1CNC(=O)N1`: the Activity result in series [14] was “Dose-dependent effect”; in series [7] it was “Non-toxic”. Moreover, the inhibition entry in [6] is “Dose-dependent effect”. In addition, in series [5], the inhibition result was “Active”. The inhibition entry in series [9] and in series [8] was “inactive” throughout.
